From US20230116196A1, “METHOD OF TREATING CNS DISORDERS WITH NEU[…] GABAERGIC COMPOUNDS” (priority 2017, published 2023) come the findings set out here.

Test [1] deals with dentate gyrus granule cells (DGGCs). Put plainly: Acute NAS exposure: phasic currents (sIPSCs) in DGGCs of hippocampal slices. It is filed as cell-based, mouse. Conditions: for mean sIPSC amplitude before versus during exposure / mean sIPSC decay time in the presence of NAS: 100 nM acute; for sIPSC Amplitude / sIPSC Decay / sIPSC Frequency: during acute 100 nM exposure. The method, then:
(§1) Brain slices were prepared from 3- to 5-week-old male C57 mice. Mice were anesthetized with isoflurane, decapitated, and brains were rapidly removed and submerged in ice-cold cutting solution containing (mM): 126 NaCl, 2.5 KCl, 0.5 CaCl2, 2 MgCl2, 26 NaHCO3, 1.25 NaH2PO4, 10 glucose, 1.5 sodium pyruvate, and 3 kynurenic acid. Coronal 310 μm thick slices were cut with the vibratome VT1000S (Leica Microsystems, St Louis, Mo., USA). The slices were then transferred into incubation chamber filled with prewarmed (31-32° C.) oxygenated artificial cerebro-spinal fluid (ACSF) of the following composition (in mM): 126 NaCl, 2.5 KCl, 2 CaCl2, 2 MgCl2, 26 NaHCO3, 1.25 NaH2PO4, 10 glucose, 1.5 sodium pyruvate, 1 glutamine, 3 kynurenic acid and 0.005 GABA bubbled with 95% O2-5% CO2. Slices were allowed to recover at 32° C. for at least 1 hr before recording. Exogenous GABA was added in an attempt to standardize ambient GABA in the slice and provide an agonist source for newly inserted extrasynaptic GABAARs.
(§2) After recovery, a single slice was transferred to a submerged, dual perfusion recording chamber (Warner Instruments, Hamden, Conn., USA) on the stage of an upright microscope (Nikon FN-1) with a 40× water immersion objective equipped with DIC/IR optics. Slices were maintained at 32° C. and gravity-superfused with ACSF solution throughout experimentation and perfused at rate of 2 ml/min with oxygenated (O2/CO2 95/5%) ACSF.
(§3) Whole-cell currents were recorded from the dentate gyrus granule cells (DGGCs) in 310-μm-thick coronal hippocampal slices. Patch pipettes (5-7MΩ) were pulled from borosilicate glass (World Precision Instruments) and filled with intracellular solution of the composition (in mM) as follows: 140 CsCl, 1 MgCl2, 0.1 EGTA, 10 HEPES, 2 Mg-ATP, 4 NaCl and 0.3 Na-GTP (pH=7.2 with CsOH). A 5 min period for stabilization after obtaining the whole-cell recording conformation (holding potential of −60 mV) was allowed before currents were recorded using an Axopatch 200B amplifier (Molecular Devices), low-pass filtered at 2 kHz, digitized at 20 kHz (Digidata 1440A; Molecular Devices), and stored for offline analysis.
For tonic current measurements, an all-points histogram was plotted for a 10 s period before and during 100 μM picrotoxin application, once the response reached a plateau level. Recordings with unstable baselines were discarded. Fitting the histogram with a Gaussian distribution gave the mean baseline current amplitude and the difference between the amplitudes before and during picrotoxin was considered to be the tonic current. The negative section of the all-points histogram which corresponds to the inward IPSCs was not fitted with a Gaussian distribution (Kretschmannova et al., 2013; Nusser and Mody, 2002). Series resistance and whole-cell capacitance were continually monitored and compensated throughout the course of the experiment. Recordings were eliminated from data analysis if series resistance increased by >20%. Spontaneous inhibitory post-synaptic currents (sIPSCs) were analyzed using the mini-analysis software (version 5.6.4; Synaptosoft, Decatur, Ga.). Minimum threshold detection was set to 3 times the value of baseline noise signal. To assess sIPSC kinetics, the recording trace was visually inspected and only events with a stable baseline, sharp rising phase, and single peak were used to negate artifacts due to event summation. Only recordings with a minimum of 200 events fitting these criteria were analyzed. sIPSCs amplitude, and frequency from each experimental condition was pooled and expressed as mean±SEM. To measure sIPSC decay, 100 consecutive events were averaged and the decay was fitted to a double exponential and the weighted decay constant (tw) was determined. Statistical analysis was performed by using Student t-test (paired and unpaired where appropriate), where p<0.05 is considered significant. […]

Test [2] concerns GABA receptor trafficking. Kind of test: GABA receptor trafficking measured by GABAergic current density. Type of test: cell-based. The source says: As shown in above examples, not all neurosteroids can modulate GABA receptor trafficking.
Test [3] has as its system dentate gyrus granule cells (DGGCs). It is filed as cell-based, mouse. To be noted: for tonic current after exposure and washout: 30-60 min wash, vehicle control 43.9±5.7 pA; for concentration dependence of tonic current after exposure and washout: maximal effects at 1 μM; for tonic current versus vehicle treated slices with PKC inhibitor GFX: GFX 50 μM 15 min, then co-exposure 15 min, ≥30 min washout. As for the experimental part:
as §1, §2, §3
For tonic current measurements, an all-points histogram was plotted for a 10 s period before and during 100 μM picrotoxin application, once the response reached a plateau level. Recordings with unstable baselines were discarded. Fitting the histogram with a Gaussian distribution gave the mean baseline current amplitude and the difference between the amplitudes before and during picrotoxin was considered to be the tonic current. The negative section of the all-points histogram which corresponds to the inward IPSCs was not fitted with a Gaussian distribution (Kretschmannova et al., 2013; Nusser and Mody, 2002). Series resistance and whole-cell capacitance were continually monitored and compensated throughout the course of the experiment. Recordings were eliminated from data analysis if series resistance increased by >20%. Spontaneous inhibitory post-synaptic currents (sIPSCs) were analyzed using the mini-analysis software (version 5.6.4; Synaptosoft, Decatur, Ga.). Minimum threshold detection was set to 3 times the value of baseline noise signal. To assess sIPSC kinetics, the recording trace was visually inspected and only events with a stable baseline, sharp rising phase, and single peak were used to negate artifacts due to event summation. Only recordings with a minimum of 200 events fitting these criteria were analyzed. sIPSCs amplitude, and frequency from each experimental condition was pooled and expressed as mean±SEM. To measure sIPSC decay, 100 consecutive events were averaged and the decay was fitted to a double exponential and the weighted decay constant (tw) was determined. Statistical analysis was performed by using Student t-test (paired and unpaired where appropriate), where p<0.05 is considered significant.

Regarding `CC(=O)[C@H]1CC[C@H]2[C@@H]3CC[C@H]4C[C@H](O)CC[C@]4(C)[C@H]3CC[C@]12C` [ALLO, Allopregnanolone], in test [1], the “mean sIPSC amplitude before versus during exposure” value is “no significant difference”, the “mean sIPSC decay time in the presence of NAS” value (shortened to “mean sIPSC decay time”) is on record as “significantly increased”, the “sIPSC Amplitude” value is 39.1 pA and the “sIPSC Decay” value is 19.2 ms. Moreover, the “sIPSC Frequency” value in test [1] is 3.4 Hz. In addition, the “modulation of GABA receptor trafficking” value in test [2] is “modulated”. Also, in test [3], the “tonic current after 100 nM exposure and washout, WT slices” value was “significant increase”; the “tonic current versus vehicle treated slices with PKC inhibitor GFX” value is “no significant difference”. Besides, the “tonic current after exposure and washout” value in test [3] (1 μM, 15 min incubation) worked out at 95.8±10.8 pA. The “concentration dependence of tonic current after exposure and washout” value in test [3] (15 min incubation, wash) is recorded as “concentration-dependent increase”.
For `CC(=O)[C@H]1CC[C@H]2[C@@H]3CC[C@H]4C[C@](C)(O)CC[C@]4(C)[C@H]3CC[C@]12C` [Ganaxolone], in test [1], the “mean sIPSC amplitude before versus during exposure” value is “no significant difference”, the “mean sIPSC decay time” value is given as “significantly increased”, the “sIPSC Amplitude” value amounted to 55.1 pA and the “sIPSC Decay” value was found to be 23.8 ms. The “sIPSC Frequency” value in test [1] was found to be 5.6 Hz. Also, the “modulation of GABA receptor trafficking” value in test [2] is “did not modulate”. Moreover, the “tonic current after exposure and washout” value in test [3] (1 μM, 15 min incubation) worked out at 57.4±6.3 pA. Also, the “magnitude of tonic current versus control” value in test [3] (1 μM, 15 min incubation, wash) is “did not significantly alter”.
`C[C@@]1(O)CC[C@@]2(C)[C@H](CC[C@@H]3[C@@H]2CC[C@]2(C)[C@@H](C(=O)Cn4nccn4)CC[C@@H]32)C1` [SGE-516]: in test [1], the “mean sIPSC amplitude before versus during exposure” value is given as “no significant difference”, the “mean sIPSC decay time” value is “significantly increased”, the “sIPSC Amplitude” value is recorded as 52.9 pA and the “sIPSC Decay” value turned out to be 15.1 ms. For the same compound, the “sIPSC Frequency” value in test [1] stood at 4.6 Hz. Moreover, in test [2], the “modulation of GABA receptor trafficking” value was “modulated”. In addition, in test [3], the “tonic current after 100 nM exposure and washout, WT slices” value is “significant increased”; the “tonic current versus vehicle treated slices with PKC inhibitor GFX” value was “no significant difference”. The “tonic current after exposure and washout” value in test [3] (1 μM, 15 min incubation) is 123.0±22.2 pA. For the same compound, the “concentration dependence of tonic current after exposure and washout” value in test [3] (15 min incubation, wash) was “concentration-dependent increase”.
